The text below walks through data of patent publication US11485720B2, “Anti-infective agents” (University of Dundee, priority 2016, dated 2022).

What all share (format): cell-based
For one assay, the system named is Hep G2. The assay is described as follows: Hep G2 in-vitro cytotoxicity assay. Particulars: Homo sapiens, HepG2, read-out: Hs HEPG2 pEC50 (converted). In outline: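 Hep G2 human hepatocyte carcinoma cells serve as a general mammalian cell toxicity indicator, following the Mersch-Sundermann procedure.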
Assay [1] relates to Leishmania donovani. The assay is described as follows: Leishmania donovani intramacrophage inhibition assay (Ld-INMAC). Particulars: intramacrophage amastigotes in THP-1 cells, read-out: Ld-INMAC pEC50 (converted). As to the method: Assay Method for Measurement of In Vitro Inhibition of Leishmania donovani.
These experiments were run in accordance with the method as detailed herein and results from these experiments are provided in the Experimental Results hereinafter.
The intramacrophage Leishmania assay was performed as described in de Rycker et al (Antimicrob Agents Chemother, 2013 July; 57(7):2913-22. doi: 10.1128/AAC.02398-12). Briefly, 1 μl of compound was pre-dispensed into 384 well sterile intermediary plates. For single point screening, amphotericin B was added to all wells of column 24 as a positive control (final concentration 2 μM) and DMSO to column 23. For potency determinations, ten-point, one in three dilution curves were created with the highest concentration being 50 μM and on each plate a control curve of amphotericin B was included. Controls were as follows: columns 11 and 12: DMSO, columns 23 and 24: amphotericin B (final concentration 2 μM). To the intermediary plates, 100 μl of THP-1 media was added and plates were shaken for >5 min to ensure complete mixing. THP-1 cells (8,000 per well, 50 μl) were plated into black clear-bottom 384 well plates (Corning) in presence of 10 nM PMA. After 20 min at room temperature, the plates were incubated at 37° C. under 5% CO2 in a humidified incubator for 75 h. The cells were then washed with […] sterile phosphate buffered saline (PBS) supplemented with 1 mM CaCl2, 0.5 mM MgCl2, 0.1% (w/v) bovine serum albumin (PBS-A) and amastigotes were added to all wells at a multiplicity of infection of 5 (40,000 amastigotes per well). After 40 min at room temperature, plates were returned to the incubator. Amastigotes were incubated in the presence of macrophages for 16 h. Any remaining extracellular amastigotes were subsequently removed with an overflow wash of 1 ml PBS-A per well (wash buffer is being aspirated from the top of the well as it is being dispensed) followed by addition of 25 μl of the compound pre-dilutions using a Matrix Hydra DT pipetting station. The final dilution of each compound was 200-fold. Plates were incubated for 72 h and then washed (250 μl PBS-A) and fixed (4% (v/v) formaldehyde-PBS, 30 min, room temperature). After fixation, the wells were washed with 250 μl PBS, stained (10 μg/ml DAPI, 0.4 μg ml-1 HCS Cellmask Deep Red in PBS+0.1% (v/v) Triton X-100, 30 min, room temperature) and washed with 250 μl PBS. Finally, PBS+0.05% (v/v) thimerosal was added to the wells, the plates were sealed and imaged on a high-content microscope (GE IN Cell 1000 or GE IN Cell 2000) using a 10× objective. Image analysis was carried out with GE IN Cell Analyzer 1000 Workstation using the “Multi Target Analysis” module. […]

The next assay concerns Cryptosporidium parvum. The assay is described as follows: In vitro Crytosporidium inhibition assay. The following applies: Cryptosporidium parvum; read-out: Cryptosporidium parvum pEC50 (converted). From the text:
Assay Method for Measurement of In Vitro Inhibition of Crytosporidium.
These experiments were run in accordance with the method of Besssoff et. al. Antimicrob. Agents Chemother. 2013, 57:1804-1814. Results from these experiments are provided in the Experimental Results hereinafter.

Assay [2] deals with Leishmania donovani. The assay is described as follows: Ld-cAxAm-TP-pMIC assay. The following applies: read-out: Ld-cAxAm-TP-pMIC pEC50 (converted).
In a further assay the test system is M. tuberculosis H37Rv. The assay is described as follows: In vitro inhibition of M. tuberculosis H37Rv (MIC, resazurin). The following applies: Mycobacterium tuberculosis, read-out: Mtb MIC.
The test system of a further assay is THP-1 cells. As to the kind of experiment: THP-1 host cell count in intramacrophage Leishmania assay. Particulars: Homo sapiens, host cell toxicity, read-out: THP1 pEC50 (converted). The method, then:
The intramacrophage Leishmania assay was performed as described in de Rycker et al (Antimicrob Agents Chemother, 2013 July; 57(7):2913-22. doi: 10.1128/AAC.02398-12). Briefly, 1 μl of compound was pre-dispensed into 384 well sterile intermediary plates. For single point screening, amphotericin B was added to all wells of column 24 as a positive control (final concentration 2 μM) and DMSO to column 23. For potency determinations, ten-point, one in three dilution curves were created with the highest concentration being 50 μM and on each plate a control curve of amphotericin B was included. Controls were as follows: columns 11 and 12: DMSO, columns 23 and 24: amphotericin B (final concentration 2 μM). To the intermediary plates, 100 μl of THP-1 media was added and plates were shaken for >5 min to ensure complete mixing. THP-1 cells (8,000 per well, 50 μl) were plated into black clear-bottom 384 well plates (Corning) in presence of 10 nM PMA. After 20 min at room temperature, the plates were incubated at 37° C. under 5% CO2 in a humidified incubator for 75 h. The cells were then washed with […] sterile phosphate buffered saline (PBS) supplemented with 1 mM CaCl2, 0.5 mM MgCl2, 0.1% (w/v) bovine serum albumin (PBS-A) and amastigotes were added to all wells at a multiplicity of infection of 5 (40,000 amastigotes per well). After 40 min at room temperature, plates were returned to the incubator. Amastigotes were incubated in the presence of macrophages for 16 h. Any remaining extracellular amastigotes were subsequently removed with an overflow wash of 1 ml PBS-A per well (wash buffer is being aspirated from the top of the well as it is being dispensed) followed by addition of 25 μl of the compound pre-dilutions using a Matrix Hydra DT pipetting station. The final dilution of each compound was 200-fold. Plates were incubated for 72 h and then washed (250 μl PBS-A) and fixed (4% (v/v) formaldehyde-PBS, 30 min, room temperature). After fixation, the wells were washed with 250 μl PBS, stained (10 μg/ml DAPI, 0.4 μg ml-1 HCS Cellmask Deep Red in PBS+0.1% (v/v) Triton X-100, 30 min, room temperature) and washed with 250 μl PBS. Finally, PBS+0.05% (v/v) thimerosal was added to the wells, the plates were sealed and imaged on a high-content microscope (GE IN Cell 1000 or GE IN Cell 2000) using a 10× objective. Image analysis was carried out with GE IN Cell Analyzer 1000 Workstation using the “Multi Target Analysis” module. Settings for segmentation were as follows: nuclei: minimum area: 142.384 μm^2, sensitivity: 81, method: top-hat; cells: characteristic area: 2500 μm^2, sensitivity: 60, method: multiscale top-hat; organelles (amastigotes): granule size 1-3, 3 scales, sensitivity: 90, detection in entire cell. […]

Each structure is given as a SMILES string. ≈ marks a conversion by molar mass, not a printed value.

The MIC is the lowest concentration found to suppress growth. As for `O=C(NCC1CCCCC1)c1cc(=O)c2cc(F)cc(O)c2o1` [Example 70, N-(cyclohexylmethyl)-6-fluoro-8-hydroxy-4-oxo-4H-chromene-2-carboxamide], the EC50 in the assay on Hep G2 was 31.6 µM; in the assay on Leishmania donovani [1], 15.8 µM; in the assay on Cryptosporidium parvum, 0.0398 µM; in the assay on Leishmania donovani [2] it was 0.794 µM; in the assay on THP-1 cells, 50.1 µM. The MIC in the assay with M. tuberculosis H37Rv stood at 30 µM (≈ 9.58 µg/mL).
